# Experimental data taken from patent publication US20230085307A1, “PYRIDAZINONE COMPOUND AND HERBICIDE” (NISSAN CHEMICAL CORPORATION, priority 2019, published 2023).
# Columns and labels:
# [1] = test system: wild oat; test: Test Example 4: herbicidal effect by soil treatment (Table 19, symbol I); assay type: in vivo, wild oat (Avena fatua); conditions: amount of applied herbicide 320 g/ha
# Outline: (§1)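 Soil-surface application: an emulsion agent diluted with water to the predetermined dose is sprayed uniformly over seeds lying under roughly 1.5 cm of sterilized diluvial soil. Boxes stay in a greenhouse at 25° C. to 30° C. Three weeks later, each species is graded on previously defined criteria.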
# [2] = test system: barnyard grass; test: Test Example 5: herbicidal effect by foliage application, plastic box (Table 20, symbol H); assay type: in vivo, barnyard grass (Echinochloa crus-galli); conditions: 320 g/ha, foliage application after 14-day growth, evaluated three weeks after application
# Outline: (§2)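 Sow seeds spot-wise in sterilized diluvial soil; cover with ~1.5 cm soil. Grow 14 days in greenhouse, 25° C. to 30° C. Spray foliage with emulsion diluted to predetermined amount. Rate effect after 3 weeks.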
# [3] = test system: chickweed; test: Test Example 5: herbicidal effect by foliage application, plastic box (Table 20, symbol P); assay type: in vivo, common chickweed (Stellaria media); conditions: 320 g/ha, foliage application after 14-day growth, evaluated three weeks after application
# Outline: as §2
# [4] = test system: barnyard grass; test: Test Example 4: herbicidal effect by soil treatment (Table 19, symbol H); assay type: in vivo, barnyard grass (Echinochloa crus-galli); conditions: amount of applied herbicide 320 g/ha
# Outline: as §1
# [5] = test system: southern crabgrass; test: Test Example 4: herbicidal effect by soil treatment (Table 19, symbol F); assay type: in vivo, southern crabgrass (Digitaria ciliaris); conditions: amount of applied herbicide 320 g/ha
# Outline: as §1
# [6] = test system: redroot pigweed; test: Test Example 5: herbicidal effect by foliage application, plastic box (Table 20, symbol N); assay type: in vivo, redroot pigweed (Amaranthus retroflexus); conditions: 320 g/ha, foliage application after 14-day growth, evaluated three weeks after application
# Outline: as §2
# [7] = test system: Japanese bulrush; test: Test Example 1: herbicidal activity, application before weed generation under submerged conditions (Table 16, symbol B); assay type: in vivo, Japanese bulrush (Schoenoplectus juncoides); conditions: amount of applied herbicide 320 g/ha
# Outline: (§3)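 Submerged Wagner pots (alluvial soil, 4 cm water) sown with weed seeds and planted with 2.5-leaf rice seedlings; emulsifiable concentrate diluted in water applied to water surface on sowing day. Held in greenhouse at 25-30 °C; injury scored 0-5 by herbicidal rate after three weeks.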
# [8] = test system: Chinese sprangletop; test: Test Example 3: herbicidal effect by foliage application, Wagner pot (Table 18, symbol D); assay type: in vivo, chinese sprangletop (Leptochloa chinensis); conditions: 320 g/ha
# Outline: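 Plants were sown in alluvial soil held under 0.1–0.5 cm standing water and grown 14 days in a greenhouse at 25–30 °C. An emulsifiable formulation, water-diluted to the set dose, was then sprayed onto the foliage, and effects were scored three weeks later using previously defined criteria.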
# [9] = test system: lambsquarters; test: Test Example 4: herbicidal effect by soil treatment (Table 19, symbol O); assay type: in vivo, lambsquarters (Chenopodium album); conditions: amount of applied herbicide 320 g/ha
# Outline: as §1
# [10] = test system: blackgrass; test: Test Example 5: herbicidal effect by foliage application, plastic box (Table 20, symbol J); assay type: in vivo, blackgrass (Alopecurus myosuroides); conditions: 320 g/ha, foliage application after 14-day growth, evaluated three weeks after application
# Outline: as §2
# [11] = test system: wild oat; test: Test Example 5: herbicidal effect by foliage application, plastic box (Table 20, symbol I); assay type: in vivo, wild oat (Avena fatua); conditions: 320 g/ha, foliage application after 14-day growth, evaluated three weeks after application
# Outline: as §2
# [12] = test system: velvetleaf; test: Test Example 4: herbicidal effect by soil treatment (Table 19, symbol M); assay type: in vivo, velvetleaf (Abutilon theophrasti); conditions: amount of applied herbicide 320 g/ha
# Outline: as §1
# [13] = test system: blackgrass; test: Test Example 4: herbicidal effect by soil treatment (Table 19, symbol J); assay type: in vivo, blackgrass (Alopecurus myosuroides); conditions: amount of applied herbicide 320 g/ha
# Outline: as §1
# [14] = test system: velvetleaf; test: Test Example 5: herbicidal effect by foliage application, plastic box (Table 20, symbol M); assay type: in vivo, velvetleaf (Abutilon theophrasti); conditions: 320 g/ha, foliage application after 14-day growth, evaluated three weeks after application
# Outline: as §2
# [15] = test system: oval-leafed pondweed; test: Test Example 1: herbicidal activity, application before weed generation under submerged conditions (Table 16, symbol C); assay type: in vivo, oval-leafed pondweed (Monochoria vaginalis); conditions: amount of applied herbicide 320 g/ha
# Outline: as §3
# [16] = test system: redroot pigweed; test: Test Example 4: herbicidal effect by soil treatment (Table 19, symbol N); assay type: in vivo, redroot pigweed (Amaranthus retroflexus); conditions: amount of applied herbicide 320 g/ha
# Outline: as §1
SMILES,"Herbicidal effect by soil treatment, I: wild oat [1]",herbicidal effect on H: barnyard grass (evaluation grade 0-5) [2],herbicidal effect on P: chickweed (evaluation grade 0-5) [3],"Herbicidal effect by soil treatment, H: barnyard grass [4]","Herbicidal effect by soil treatment, F: southern crabgrass [5]",herbicidal effect on N: redroot pigweed (evaluation grade 0-5) [6],"Herbicidal effect, B: Japanese bulrush [7]",herbicidal effect on Chinese sprangletop (D) [8],"Herbicidal effect by soil treatment, O: lambsquarters [9]",herbicidal effect on J: blackgrass (evaluation grade 0-5) [10],herbicidal effect on I: wild oat (evaluation grade 0-5) [11],"Herbicidal effect by soil treatment, M: velvetleaf [12]","Herbicidal effect by soil treatment, J: blackgrass [13]",herbicidal effect on M: velvetleaf (evaluation grade 0-5) [14],"Herbicidal effect, C: oval-leafed pondweed [15]","Herbicidal effect by soil treatment, N: redroot pigweed [16]"
CCCC(=O)Oc1c(C)nn(C)c(=O)c1-c1c(-c2ccc(OC)cc2)sc2c(F)cccc12 [4-006],0 (Herbicidal rate of 5% or less (almost no effect)),4 (Herbicidal rate of 70% or more and less than 90%),5 (Herbicidal rate of 90% or more (almost completely withered)),4 (Herbicidal rate of 70% or more and less than 90%),0 (Herbicidal rate of 5% or less (almost no effect)),5 (Herbicidal rate of 90% or more (almost completely withered)),3 (Herbicidal rate of 40% or more and less than 70%),5 (Herbicidal rate of 90% or more (almost completely withered)),4 (Herbicidal rate of 70% or more and less than 90%),1 (Herbicidal rate of 5% or more and less than 20%),0 (Herbicidal rate of 5% or less (almost no effect)),1 (Herbicidal rate of 5% or more and less than 20%),0 (Herbicidal rate of 5% or less (almost no effect)),5 (Herbicidal rate of 90% or more (almost completely withered)),0 (Herbicidal rate of 5% or less (almost no effect)),4 (Herbicidal rate of 70% or more and less than 90%)
CCCOc1ccc(-c2sc3c(Cl)cccc3c2-c2c(OC(=O)CCC)c(C)nn(C)c2=O)cc1 [4-028],0 (Herbicidal rate of 5% or less (almost no effect)),5 (Herbicidal rate of 90% or more (almost completely withered)),5 (Herbicidal rate of 90% or more (almost completely withered)),0 (Herbicidal rate of 5% or less (almost no effect)),0 (Herbicidal rate of 5% or less (almost no effect)),5 (Herbicidal rate of 90% or more (almost completely withered)),3 (Herbicidal rate of 40% or more and less than 70%),3 (Herbicidal rate of 40% or more and less than 70%),4 (Herbicidal rate of 70% or more and less than 90%),0 (Herbicidal rate of 5% or less (almost no effect)),0 (Herbicidal rate of 5% or less (almost no effect)),1 (Herbicidal rate of 5% or more and less than 20%),0 (Herbicidal rate of 5% or less (almost no effect)),5 (Herbicidal rate of 90% or more (almost completely withered)),0 (Herbicidal rate of 5% or less (almost no effect)),4 (Herbicidal rate of 70% or more and less than 90%)
CCCC(=O)Oc1c(C)nn(C)c(=O)c1-c1c(-c2ccc(SC)cc2)sc2c(F)cccc12 [4-051],0 (Herbicidal rate of 5% or less (almost no effect)),4 (Herbicidal rate of 70% or more and less than 90%),5 (Herbicidal rate of 90% or more (almost completely withered)),0 (Herbicidal rate of 5% or less (almost no effect)),0 (Herbicidal rate of 5% or less (almost no effect)),5 (Herbicidal rate of 90% or more (almost completely withered)),3 (Herbicidal rate of 40% or more and less than 70%),3 (Herbicidal rate of 40% or more and less than 70%),4 (Herbicidal rate of 70% or more and less than 90%),4 (Herbicidal rate of 70% or more and less than 90%),4 (Herbicidal rate of 70% or more and less than 90%),0 (Herbicidal rate of 5% or less (almost no effect)),0 (Herbicidal rate of 5% or less (almost no effect)),5 (Herbicidal rate of 90% or more (almost completely withered)),0 (Herbicidal rate of 5% or less (almost no effect)),5 (Herbicidal rate of 90% or more (almost completely withered))
